The subject of experiment [1] is gram-negative bacteria with MBL, for example Klebsiella pneumoniae, E. coli and Pseudomonas aeruginosa. The conditions noted are these: in combination with meropenem; cited from earlier work.
In experiment [2] the test system is bacteria which rely on SBLs. The conditions noted are these: in combination with meropenem; cited from earlier work.
Experiment [3] concerns Klebsiella pneumoniae ST147 (NDM-1 and KPC-2). The experiment in a line: Checkerboard MIC, fixed ratio of sBLI to antibiotic (Examples 7-10). The settings on record: caMHB 29.4 μM Zn2+. Format: cell-based.
Source text: The antibiotics and serine β-lactamase-inhibitors (sBLIs) were purchased from the following suppliers: Ceftazidime (CAZ): Sigma-Aldrich; Cefepime (FEP): Sigma-Aldrich; Cefpodoxime (CEFP): MedChemExpress; Sulbactam (SUL): Sigma-Aldrich Avibactam (AVI): Biosynth; Vaborbactam (VAB): ABCR; Tazobactam (TAZ): Sigma-Aldrich; Taniborbactam (TAN): Sigma-Aldrich.
In each of Examples 3-23, the compound of Example 26 of WO 2018/033719 was employed as the zinc chelator. The following abbreviations are used in these examples: sBLI means serine-β-lactamase inhibitor; CFU means colony-forming unit, which is a group of microbes that grows from a single cell on a petri plate; DMSO means dimethyl sulfoxide; MHB means Mueller-Hinton broth; caMHB means cation-adjusted Mueller-Hinton broth; MIC means minimum inhibitory concentration—the lower the MIC, the more efficient the combination against the respective bacterial strain.
General Protocol Used in Examples 3-10 Employing a Fixed Ratio of sBLI to Antibiotic within Each Experiment:
Antimicrobial susceptibility testing (AST) by broth microdilution (MIC determination) was performed according to The European Committee on Antimicrobial Susceptibility Testing (EUCAST) guidelines (see Reading guide for broth microdilution Version 5.0, 2024: https://www.eucast.org).
Sterile clear round bottom polystyrene (non-treated) 96-well microplates (Corning 3788) were used for making serial two-fold dilutions of the antibiotic and the serine sBLI in cation-adjusted Mueller Hinton II broth (caMHB; Thermo Scientific, T3462, containing 29.4 μM Zn^2+), across the columns of the microtiter plate ([…]; columns 1-12). The checkerboard plates were all made by keeping the sBLI at a fixed ratio relative to antibiotic (absolute concentrations of each, in μg/mL) to all wells containing sample in each plate. Additionally, a set of samples were included in each test plate, where the zinc chelator was added, at various fixed concentrations, of 16 μg/mL, 8 μg/mL and/or 4 μg/mL (as specified in each Example). All sample wells contained growth medium (caMHB), and inoculated bacteria at a final inoculum between 3-7×10^5 CFU/mL. […] Synergy for the triple combination (antibiotic, sBLI, and zinc chelator) was defined as when the MIC in rows containing the zinc chelator in combination with antibiotic and sBLI (triple combination), was lower than for rows containing antibiotic and sBLI (double combination; no zinc chelator).
(§1) Two technical replicates were performed for each sample. An X in rows 1-8 in the table indicates bacterial growth, while a blank cell indicates no growth. Concentrations (μg/mL) of CAZ are given in row 0a). Concentrations (μg/mL) of AVI are given in row 0b. The zinc chelator was added in fixed concentrations, at 16 μg/mL in rows 3 and 4, at 8 μg/mL in rows 5 and 6, and 4 μg/mL in rows 7 and 8. As a control, the effect of CAZ and AVI (no zinc chelator) was tested (rows 1 and 2). All wells contained bacterial growth medium (caMHB, 29.4 μM Zn^2+) and were inoculated with the test bacterium. The grey cells indicate the CAZ MIC.
as §1, with “FEP” for “CAZ”, “0a.” for “0a).”
Two technical replicates were performed for each sample. An X in rows 1-8 in the table indicates bacterial growth, while a blank cell indicates no growth. Concentrations (μg/mL) of FEP are given in row 0a. Concentrations (μg/mL) of SUL are given in row 0b. […]

Experiment [4] concerns certain strains of Pseudomonas aeruginosa. The settings on record: in combination with meropenem; cited from earlier work.

Consider one compound from patent US20260325538A1, “THERAPY” (priority 2023, published 2026).

For the compound `CN(C[C@H](O)[C@@H](O)[C@H](O)[C@H](O)CO)C(=O)c1ccc(CN(Cc2ccccn2)Cc2ccccn2)nc1` [zinc chelator], the “sensitivity of gram-negative bacteria with MBL to meropenem” value in experiment [1] was “the sensitivity of these bacteria towards the antibiotic drug is reinstated”. The “effect of combination with meropenem” value in experiment [2] was “no effect”; in experiment [4], “poor effect”. Also, the “synergy with the zinc chelator” value in experiment [3] (zinc chelator 4 μg/mL, with FEP and TAZ (fixed ratio)) is “Synergy”; in experiment [3] (zinc chelator 8 μg/mL, with CAZ and AVI (fixed ratio)), “Synergy”; in experiment [3] (zinc chelator 8 μg/mL, with FEP and AVI (fixed ratio)) it was “Synergy”; in experiment [3] (zinc chelator 8 μg/mL, with FEP and SUL (fixed ratio)), “Synergy”; in experiment [3] (zinc chelator 8 μg/mL, with FEP and TAZ (fixed ratio)), “Synergy”; in experiment [3] (zinc chelator 16 μg/mL, with CAZ and AVI (fixed ratio)), “Synergy”. Moreover, the “synergy with the zinc chelator” value in experiment [3] (zinc chelator 16 μg/mL, with FEP and AVI (fixed ratio)) was “Synergy”; in experiment [3] (zinc chelator 16 μg/mL, with FEP and SUL (fixed ratio)) it was “Synergy”; in experiment [3] (zinc chelator 16 μg/mL, with FEP and TAZ (fixed ratio)), “Synergy”.
